In ChEMBL document CHEMBL1140827, “From rigid cyclic templates to conformationally stabilized acyclic scaffolds. Part II: Acyclic replacements for the (3S)-3-benzylpiperidine in a series of potent CCR3 antagonists” (Bioorg Med Chem Lett, 2008):

What was measured:
[1] = biological target: T1, C-C chemokine receptor type 3 (Homo sapiens, UniProt P51677); assay: Displacement of [125I] eotaxin from human CCR3 receptor in CHO cells; format: cell-based
T1 sequence (P51677 whole entry): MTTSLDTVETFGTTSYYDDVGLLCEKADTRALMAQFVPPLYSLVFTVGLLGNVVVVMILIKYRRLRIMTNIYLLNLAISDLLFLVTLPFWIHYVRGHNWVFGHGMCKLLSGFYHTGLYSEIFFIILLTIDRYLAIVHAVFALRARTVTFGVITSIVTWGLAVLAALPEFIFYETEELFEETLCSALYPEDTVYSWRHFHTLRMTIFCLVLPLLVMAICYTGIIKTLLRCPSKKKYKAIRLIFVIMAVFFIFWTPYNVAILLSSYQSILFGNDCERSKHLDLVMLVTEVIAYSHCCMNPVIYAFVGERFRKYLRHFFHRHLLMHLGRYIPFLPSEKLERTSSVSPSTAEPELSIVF

[2] = biological target: T2, C-C chemokine receptor type 3 (Homo sapiens) (UniProt P51677); assay: Antagonist activity at human CCR3 receptor assessed as inhibition of chemotaxis in eosinophil at 3 nM; format: functional; parameters: scale not given: the % may be the effect or the level left
T2 sequence (whole entry): T1 sequence (P51677 whole entry)

[3] = biological target: T2, C-C chemokine receptor type 3 (Homo sapiens); assay: Antagonist activity at human CCR3 receptor assessed as inhibition of chemotaxis in eosinophil at 30 nM; format: functional; parameters: scale not given: the % may be the effect or the level left
[4] = biological target: T2, C-C chemokine receptor type 3 (Homo sapiens); assay: Antagonist activity at human CCR3 receptor assessed as inhibition of chemotaxis in eosinophil at 0.03 nM; format: functional; parameters: scale not given: the % may be the effect or the level left
[5] = biological target: T2, C-C chemokine receptor type 3 (Homo sapiens); assay: Antagonist activity at human CCR3 receptor assessed as inhibition of chemotaxis in eosinophil at 0.3 nM; format: functional; parameters: scale not given: the % may be the effect or the level left
[6] = biological target: C-C chemokine receptor type 3 (Homo sapiens, UniProt P51677); assay: Displacement of [125I] eotaxin from human CCR3/CCR2 chimeric receptor in CHO cells; format: cell-based

SMILES | IC50 [1] [nM] | also measured
C[C@@H](NC(=O)Nc1cccc(-c2nnnn2C)c1)[C@@H](O)CN(C)[C@@H](C)[C@H](O)c1ccccc1 | 5.7 | –
CCc1cc(NC(=O)N[C@H](C)[C@@H](O)CN(CC)CCCc2ccc(F)cc2)cc(-c2nnnn2C)c1 (stereo in doubt; 5b) | 0.4 | –
CCc1cc(NC(=O)N[C@H](C)[C@@H](O)CN(CCCc2ccc(F)cc2)CC23CC4CC(CC(C4)C2)C3)cc(-c2nnnn2C)c1 | 211 | –
CN(CCCc1ccc(F)cc1)C[C@@H]1CCCC[C@H]1NC(=O)Nc1cccc(-c2nnnn2C)c1 | 0.6 | –
CCc1cc(NC(=O)N[C@H](C)[C@@H](O)CN(CCCc2ccc(F)cc2)C2CCCCC2)cc(-c2nnnn2C)c1 | 3.2 | Activity [2]: 0%; Activity [3]: 58%
C[C@@H](NC(=O)Nc1cccc(-c2nnnn2C)c1)[C@@H](O)CN(CCCc1ccc(F)cc1)C1CCCCC1 | 2.5 | –
C[C@@H](NC(=O)Nc1cccc(-c2nnnn2C)c1)[C@@H](O)CN(C)[C@@H](C)[C@@H](O)c1ccccc1 | 0.4 | Activity [3]: 67%
CCc1cc(NC(=O)N[C@H](C)[C@@H](O)CN(C)[C@@H](C)[C@@H](O)c2ccccc2)cc(-c2nnnn2C)c1 | 0.5 | –
C[C@H]([C@@H](O)c1ccccc1)N(C)C[C@H](O)[C@@H](C)NC(=O)Nc1cccc(-c2nnnn2C)c1 | 238 | –
C[C@@H](NC(=O)Nc1cccc(-c2nnnn2C)c1)[C@@H](O)CN(CCCc1ccc(F)cc1)CC1CC1 | 0.4 | Activity [2]: 44%
CCc1cc(NC(=O)N[C@H](C)[C@@H](O)CN(CC)[C@@H](C)CCc2ccc(F)cc2)cc(-c2nnnn2C)c1 | 0.2 | –
CCc1cc(NC(=O)N[C@H](C)[C@@H](O)CN(CCCc2ccc(F)cc2)Cc2ccccc2)cc(-c2nnnn2C)c1 | 2.5 | Activity [4]: 9%; Activity [5]: 61%
C[C@@H](NC(=O)Nc1cccc(-c2nnnn2C)c1)[C@@H](O)CN(CCCc1ccc(F)cc1)CC12CC3CC(CC(C3)C1)C2 | 421 | –
CCc1cc(NC(=O)N[C@H](C)[C@@H](O)CN(CC)CCCc2ccc(F)cc2)cc(-c2nnnn2C)c1 (stereo in doubt; 5Et) | – | IC50 ([1]; cho): 0.4 nM
CCCN(CCCc1ccc(F)cc1)C[C@H](O)[C@@H](C)NC(=O)Nc1cc(CC)cc(-c2nnnn2C)c1 | 0.5 | Activity [4]: 42%; Activity [5]: 62%
C[C@@H](NC(=O)Nc1cccc(-c2nnnn2C)c1)[C@@H](O)CN(C)CCCc1ccc(F)cc1 | 0.4 | Activity [3]: 0%
CCc1cc(NC(=O)N[C@H](C)[C@@H](O)CN(CC)[C@@H](C)[C@@H](O)Cc2ccc(F)cc2)cc(-c2nnnn2C)c1 | 1.2 | –
C[C@@H](NC(=O)Nc1cccc(-c2nnnn2C)c1)[C@@H](O)CN(CCCc1ccc(F)cc1)CC(F)(F)F | 59 | –
CCCN(CCCc1ccc(F)cc1)C[C@H](O)[C@@H](C)NC(=O)Nc1cccc(-c2nnnn2C)c1 | 0.2 | Activity [2]: 43%

SMILES | IC50 [1] [nM] | also measured
CCN(C[C@H](O)[C@@H](C)NC(=O)Nc1cccc(-c2nnnn2C)c1)[C@@H](C)[C@@H](O)Cc1ccc(F)cc1 | 19 | –
CCN(C[C@H](O)[C@@H](C)NC(=O)Nc1cccc(-c2nnnn2C)c1)[C@@H](C)CCc1ccc(F)cc1 | 2.5 | –
CCN(C[C@H](O)[C@@H](C)NC(=O)Nc1cccc(-c2nnnn2C)c1)[C@@H](C)[C@H](O)Cc1ccc(F)cc1 | 88 | –
C[C@@H](NC(=O)Nc1cccc(-c2nnnn2C)c1)[C@@H](O)CN(CCCc1ccc(F)cc1)C1CC1 | 0.4 | –
CCc1cc(NC(=O)N[C@H](C)[C@@H](O)CN(CCCc2ccc(F)cc2)S(C)(=O)=O)cc(-c2nnnn2C)c1 | 21.6 | –
CCc1cc(NC(=O)N[C@H](C)[C@@H](O)CN(CCCc2ccc(F)cc2)C2CC2)cc(-c2nnnn2C)c1 | 0.6 | –
CCc1cc(NC(=O)N[C@H](C)[C@@H](O)CN(CC)[C@@H](C)[C@H](O)Cc2ccc(F)cc2)cc(-c2nnnn2C)c1 | 3.4 | –
CCc1cc(NC(=O)N[C@H](C)[C@@H](O)CN(CCCc2ccc(F)cc2)CC2CC2)cc(-c2nnnn2C)c1 | 0.6 | –
C[C@@H](NC(=O)Nc1cccc(-c2nnnn2C)c1)[C@@H](O)CN1CCC[C@@H](Cc2ccc(F)cc2)C1 | 0.3 | IC50 [6]: 0.4 nM
CCc1cc(NC(=O)N[C@H](C)[C@@H](O)CNCCCc2ccc(F)cc2)cc(-c2nnnn2C)c1 | 0.3 | Activity [2]: 42%; Activity [3]: 55%
CCc1cc(NC(=O)N[C@H](C)[C@@H](O)CN2CCC[C@@H](Cc3ccc(F)cc3)C2)cc(-c2nnnn2C)c1 | 1.8 | –
Cn1nnnc1-c1cccc(NC(=O)N[C@@H]2CCCC[C@H]2CNCCCc2ccc(F)cc2)c1 | 3.7 | –
C[C@H]([C@H](O)c1ccccc1)N(C)C[C@H](O)[C@@H](C)NC(=O)Nc1cccc(-c2nnnn2C)c1 | 577 | –
CCc1cc(NC(=O)N[C@H](C)[C@@H](O)CN(C)CCCc2ccc(F)cc2)cc(-c2nnnn2C)c1 | 0.3 | –
CCN(CCCc1ccc(F)cc1)C[C@H](O)[C@@H](C)NC(=O)Nc1cccc(-c2nnnn2C)c1 | 0.2 | Activity [5]: 34%
Cn1nnnc1-c1cccc(NC(=O)N[C@@H]2CCCC[C@H]2CN(CCCc2ccc(F)cc2)CC(F)(F)F)c1 | 60 | –
CCc1cc(NC(=O)N[C@H](C)[C@@H](O)CN(CCCc2ccc(F)cc2)C(C)=O)cc(-c2nnnn2C)c1 | 6 | –
CCc1cc(NC(=O)N[C@H](C)[C@@H](O)CN(CCCc2ccc(F)cc2)CC(F)(F)F)cc(-c2nnnn2C)c1 | 9 | –
